# Measurements: paper PMC2656214, “A circuit supporting concentration-invariant odor perception in Drosophila” (Journal of Biology, 2009)
# How the values were obtained:
# Assay in all cases: G-CaMP calcium imaging of OSN axon terminals
# Type in all cases: cell-based
# Conditions in all cases: 10^-2 odor dilution in paraffin oil, 1 s pulse
# Or42a = target: T1, Or42a (Drosophila melanogaster, UniProt Q9V9I2)
# T1 construct: native receptor in Or42a olfactory sensory neuron of larva; G-CaMP calcium imaging; with Odorant receptor coreceptor
# T1 sequence (Q9V9I2 1-406): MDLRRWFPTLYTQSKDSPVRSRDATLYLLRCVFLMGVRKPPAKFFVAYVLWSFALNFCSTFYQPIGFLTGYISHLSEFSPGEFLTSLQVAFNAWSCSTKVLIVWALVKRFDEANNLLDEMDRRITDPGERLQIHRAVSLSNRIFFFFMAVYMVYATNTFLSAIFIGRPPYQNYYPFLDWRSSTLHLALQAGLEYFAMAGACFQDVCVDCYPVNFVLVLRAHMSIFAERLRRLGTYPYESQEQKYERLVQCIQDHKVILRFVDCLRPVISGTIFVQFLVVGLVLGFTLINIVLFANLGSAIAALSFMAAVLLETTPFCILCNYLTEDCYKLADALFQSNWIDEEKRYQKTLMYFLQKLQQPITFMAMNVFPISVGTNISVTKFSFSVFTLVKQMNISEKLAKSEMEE
# T1 sequence (Q9VNB5 1-486 partner): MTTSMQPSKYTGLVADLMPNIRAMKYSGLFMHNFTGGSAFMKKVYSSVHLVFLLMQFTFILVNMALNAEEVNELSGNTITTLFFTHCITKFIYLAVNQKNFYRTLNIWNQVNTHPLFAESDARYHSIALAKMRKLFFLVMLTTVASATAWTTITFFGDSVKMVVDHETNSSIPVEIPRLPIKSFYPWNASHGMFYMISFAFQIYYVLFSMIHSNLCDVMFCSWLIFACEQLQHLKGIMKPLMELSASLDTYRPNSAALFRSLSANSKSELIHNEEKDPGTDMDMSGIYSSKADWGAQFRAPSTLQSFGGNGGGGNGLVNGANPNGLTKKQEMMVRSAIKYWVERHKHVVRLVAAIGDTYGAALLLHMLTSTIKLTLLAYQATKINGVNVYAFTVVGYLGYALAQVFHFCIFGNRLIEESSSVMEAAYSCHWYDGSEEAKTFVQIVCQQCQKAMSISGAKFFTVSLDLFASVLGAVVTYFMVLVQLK
# Or35a = target: T2, Or35a (Drosophila melanogaster, UniProt Q9V3Q2)
# T2 construct: native receptor in Or35a olfactory sensory neuron of larva; G-CaMP1.3 calcium imaging at axon terminals; with Odorant receptor coreceptor
# T2 sequence (Q9V3Q2 1-409): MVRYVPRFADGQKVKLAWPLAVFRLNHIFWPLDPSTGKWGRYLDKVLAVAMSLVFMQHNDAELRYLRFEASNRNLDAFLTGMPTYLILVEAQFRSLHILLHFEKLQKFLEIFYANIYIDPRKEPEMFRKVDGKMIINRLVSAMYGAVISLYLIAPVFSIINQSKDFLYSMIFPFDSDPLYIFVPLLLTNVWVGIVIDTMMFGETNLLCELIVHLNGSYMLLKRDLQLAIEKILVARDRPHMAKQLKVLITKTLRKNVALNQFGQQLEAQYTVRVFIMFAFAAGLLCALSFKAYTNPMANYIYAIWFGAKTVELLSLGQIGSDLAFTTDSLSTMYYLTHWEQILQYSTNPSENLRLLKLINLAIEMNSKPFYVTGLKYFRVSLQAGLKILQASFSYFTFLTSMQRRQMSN
# T2 sequence (Q9VNB5 1-486 partner): T1 sequence (Q9VNB5 1-486 partner)
# Or82a = target: T3, Or82a (Drosophila melanogaster, UniProt P82986)
# T3 construct: native receptor in Or82a olfactory sensory neuron of larva; G-CaMP1.3 calcium imaging at axon terminals; with Odorant receptor coreceptor
# T3 sequence (P82986 1-385): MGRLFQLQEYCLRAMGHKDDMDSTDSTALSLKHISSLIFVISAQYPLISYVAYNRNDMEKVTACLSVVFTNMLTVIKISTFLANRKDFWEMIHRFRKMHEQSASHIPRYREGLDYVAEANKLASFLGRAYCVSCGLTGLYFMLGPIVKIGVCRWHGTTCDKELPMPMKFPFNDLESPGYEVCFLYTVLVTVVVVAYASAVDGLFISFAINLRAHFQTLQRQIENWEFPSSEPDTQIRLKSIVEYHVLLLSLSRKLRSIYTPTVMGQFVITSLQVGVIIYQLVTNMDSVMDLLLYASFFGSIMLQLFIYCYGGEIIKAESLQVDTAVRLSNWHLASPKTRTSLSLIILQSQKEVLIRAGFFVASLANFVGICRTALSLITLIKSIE
# T3 sequence (Q9VNB5 1-486 partner): T1 sequence (Q9VNB5 1-486 partner)
Structure (SMILES),G-CaMP calcium imaging of OSN axon terminals (Or35a),other results
CCCCCC(C)=O [2-Heptanone],,"G-CaMP calcium imaging of OSN axon terminals (Or42a): 2-Heptanone, which selectively activates Or42a but not Or42b OSNs"
O=C1CCCCC1 [cyclohexanone],hexyl acetate and cyclohexanone selectively activated only Or35a,
CC(=O)OC/C=C(\C)CCC=C(C)C [geranyl acetate],,G-CaMP calcium imaging of OSN axon terminals (Or82a): Or82a-expressing neurons responded only to geranyl acetate
CCCCCCOC(C)=O [hexyl acetate],hexyl acetate and cyclohexanone selectively activated only Or35a,
